# Legend:
# MCF7 = assay: NCI 60-cell line growth inhibition assay, MCF7; format: cell-based, human; conditions: Breast
# From the text: (§1) The following data in Table 4 summarize the growth inhibition properties of several compounds of the present invention against 60-human transformed cell lines.
# SNB-19 = assay: NCI 60-cell line growth inhibition assay, SNB-19; format: cell-based; conditions: Homo sapiens, CNS
# From the text: as §1
# SNB-75 = assay: NCI 60-cell line growth inhibition assay, SNB-75; format: cell-based, human; conditions: CNS
# From the text: as §1
# COLO 205 = assay: NCI 60-cell line growth inhibition assay, COLO 205; format: cell-based; conditions: Homo sapiens, Colon
# From the text: as §1
# HCC-2998 = assay: NCI 60-cell line growth inhibition assay, HCC-2998; format: cell-based; conditions: Homo sapiens, Colon
# From the text: as §1
# HL-60(TB) = assay: NCI 60-cell line growth inhibition assay, HL-60(TB); format: cell-based, human; conditions: Leukemia
# From the text: as §1
# MOLT-4 = assay: NCI 60-cell line growth inhibition assay, MOLT-4; format: cell-based; conditions: Homo sapiens, Leukemia
# From the text: as §1
# M14 = assay: NCI 60-cell line growth inhibition assay, M14; format: cell-based, human; conditions: Melanoma
# From the text: as §1
# MALME-3M = assay: NCI 60-cell line growth inhibition assay, MALME-3M; format: cell-based, human; conditions: Melanoma
# From the text: as §1
# SK-MEL-28 = assay: NCI 60-cell line growth inhibition assay, SK-MEL-28; format: cell-based; conditions: Homo sapiens, Melanoma
# From the text: as §1
# SK-MEL-5 = assay: NCI 60-cell line growth inhibition assay, SK-MEL-5; format: cell-based; conditions: Homo sapiens, Melanoma
# From the text: as §1
# UACC-62 = assay: NCI 60-cell line growth inhibition assay, UACC-62; format: cell-based, human; conditions: Melanoma
# From the text: as §1
# EKVX = assay: NCI 60-cell line growth inhibition assay, EKVX; format: cell-based; conditions: Homo sapiens, Non-Small Cell Lung
# From the text: as §1
# HOP-62 = assay: NCI 60-cell line growth inhibition assay, HOP-62; format: cell-based, human; conditions: Non-Small Cell Lung
# From the text: as §1
# NCI-H522 = assay: NCI 60-cell line growth inhibition assay, NCI-H522; format: cell-based, human; conditions: Non-Small Cell Lung
# From the text: as §1
# OVCAR-4 = assay: NCI 60-cell line growth inhibition assay, OVCAR-4; format: cell-based; conditions: Homo sapiens, Ovarian
# From the text: as §1
# OVCAR-5 = assay: NCI 60-cell line growth inhibition assay, OVCAR-5; format: cell-based; conditions: Homo sapiens, Ovarian
# From the text: as §1
# SK-OV-3 = assay: NCI 60-cell line growth inhibition assay, SK-OV-3; format: cell-based; conditions: Homo sapiens, Ovarian
# From the text: as §1
# TK-10 = assay: NCI 60-cell line growth inhibition assay, TK-10; format: cell-based, human; conditions: Renal
# From the text: as §1
# BT-549 = assay: NCI 60-cell line growth inhibition assay, BT-549; format: cell-based, human; conditions: Breast
# From the text: as §1
# HCT-116 = assay: NCI 60-cell line growth inhibition assay, HCT-116; format: cell-based, human; conditions: Colon
# From the text: as §1
# NCI-H322M = assay: NCI 60-cell line growth inhibition assay, NCI-H322M; format: cell-based, human; conditions: Non-Small Cell Lung
# From the text: as §1
# OVCAR-3 = assay: NCI 60-cell line growth inhibition assay, OVCAR-3; format: cell-based, human; conditions: Ovarian
# From the text: as §1
# 786-0 = assay: NCI 60-cell line growth inhibition assay, 786-0; format: cell-based, human; conditions: Renal
# From the text: as §1
# A498 = assay: NCI 60-cell line growth inhibition assay, A498; format: cell-based, human; conditions: Renal
# From the text: as §1
# CAKI-1 = assay: NCI 60-cell line growth inhibition assay, CAKI-1; format: cell-based, human; conditions: Renal
# From the text: as §1
molecule,measurement,setting,value
"CCC1=C[C@H]2CN(C1)Cc1c([nH]c3ccc(I)cc13)[C@@](C(=O)OC)(c1cc3c(cc1OC)N(C)[C@H]1[C@@](O)(C(=O)OC)[C@H](OC(C)=O)C4C(CC)=CCN5CC[C@]31[C@H]45)C2 (some centres unmarked) [Example 2, 11′-iodovinorelbine]",GI50,MCF7; Homo sapiens,0.0113 µM
same,GI50,SNB-19,0.0625 µM
same,GI50,SNB-75; Homo sapiens,0.0404 µM
same,GI50,COLO 205,0.0179 µM
same,GI50,HCC-2998,< 0.01 µM
same,GI50,HL-60(TB); Homo sapiens,0.071 µM
same,GI50,MOLT-4,0.0241 µM
same,GI50,M14; Homo sapiens,> 100 µM
same,GI50,MALME-3M; Homo sapiens,0.065 µM
same,GI50,SK-MEL-28,0.0914 µM
same,GI50,SK-MEL-5,0.0188 µM
same,GI50,UACC-62; Homo sapiens,0.0256 µM
same,GI50,EKVX,0.0726 µM
same,GI50,HOP-62; Homo sapiens,0.037 µM
same,GI50,NCI-H522; Homo sapiens,< 0.01 µM
same,GI50,OVCAR-4,0.264 µM
same,GI50,OVCAR-5,0.225 µM
same,GI50,SK-OV-3,0.0633 µM
same,GI50,TK-10; Homo sapiens,0.298 µM
11′-bromovinorelbine [Example 1],GI50,BT-549,< 0.01 µM
same,GI50,MCF7,< 0.01 µM
same,GI50,SNB-75,15.1 µM
same,GI50,HCT-116,< 0.01 µM
same,GI50,HL-60(TB),< 0.01 µM
same,GI50,M14,< 0.01 µM
same,GI50,MALME-3M,0.0536 µM
same,GI50,UACC-62,< 0.01 µM
same,GI50,HOP-62,< 0.01 µM
same,GI50,NCI-H322M,< 0.01 µM
same,GI50,NCI-H522,< 0.01 µM
same,GI50,OVCAR-3,< 0.01 µM
same,GI50,786-0,< 0.01 µM
same,GI50,A498,< 0.01 µM
same,GI50,CAKI-1,< 0.01 µM
same,GI50,TK-10,< 0.01 µM
